Experimental findings from patent US9549917B2, “Heterocyclic-substituted benzofuran derivatives and methods of use thereof for the treatment of viral diseases” (priority 2011, dated 2017) are described below.

Experiment [1] concerns HCV replicon genotype 1a. Kind of experiment: HCV replicon assay, genotype 1a (cell ELISA for NS3/4A). The format is cell-based. The conditions noted are these: Hepatitis C virus, 96 h, read-out: 1a IC50 (nM). On the procedure: (§1) Measurement of inhibition by compounds was performed using the HCV replicon system. Several different replicons encoding different HCV genotypes or mutations were used. In addition, potency measurements were made using different formats of the replicon assay, including different ways of measurements and different plating formats. See Jan M. Vrolijk et al., A replicons-based bioassay for the measurement of interferons in patients with chronic hepatitis C, 110 J. V[…] 201 (2003); Steven S. Carroll et al., Inhibition of Hepatitis C Virus RNA Replication by 2′-Modified Nucleoside Analogs, 278(14) J. BIOLOGICAL CHEMISTRY 11979 (2003). However, the underlying principles are common to all of these determinations, and are outlined below.
(§2) Stable neomycin phosphotransferase encoding replicons-harboring cell lines were used, so all cell lines were maintained under G418 selection prior to the assay. Potency was determined using a cell ELISA assay with an antibody to the replicons encoded NS3/4a protease. See Caterina Trozzi et al., In Vitro Selection and Characterization of Hepatitis C Virus Serine Protease Variants Resistant to an Active-Site Peptide Inhibitor, 77(6) J. Virol. 3669 (2003). To initiate an assay, replicon cells were plated in the presence of a dilution series of test compound in the absence of G418. Typically, the assays were performed in a 96-well plate formate for manual operation, or a 384-well plate format for automated assay. Replicon cells and compound were incubated for 96 hours. At the end of the assay, cells were washed free of media and compound, and the cells were then lysed. RNA was quantified indirectly through detection of replicon-encoded NS3/4A protein levels, through an ELISA-based assay with an antibody specific for NS3/4A. IC50 determinations were calculated as a percentage of a DMSO control by fitting the data to a four-parameter fit function and the data obtained is provided in the table below.
(§3) Data for selected compounds of the present invention was obtained for genotypes 1a and 1b using this method and is provided in the table below: […]

Experiment [2] has as its system HCV replicon genotype 1b. Kind of experiment: HCV replicon assay, genotype 1b (cell ELISA for NS3/4A). In kind it is cell-based. The conditions noted are these: Hepatitis C virus, 96 h, read-out: 1b IC50 (nM). As for the experimental part:
as §1, §2, §3

For orientation: IC50 means the midpoint of a concentration-inhibition curve. Take `CNC(=O)c1c(-c2ccc(F)cc2)oc2cc(N3CCCC3=O)c(-c3cncc(-c4nc5c(s4)CCCC5(F)F)c3)cc12` [Compound 155, 5-(5-(4,4-difluoro-4,5,6,7-tetrahydrobenzo[d]thiazol-2-yl)pyridin-3-yl)-2-(4-fluorophenyl)-N-methyl-6-(2-oxopyrrolidin-1-yl)benzofuran-3-carboxamide]: the half-inhibitory concentration (IC50) came out at 2.9 nM in experiment [1] and 1 nM in experiment [2].

Turning to `CNC(=O)c1c(-c2ccc(F)cc2)oc2cc(N(C)S(C)(=O)=O)c(-c3ccc(-c4nc5c(F)cccc5o4)s3)cc12` [Compound 157], the values for the 50% inhibitory concentration (IC50) in experiment [1] and in experiment [2] were 0.9 nM and 1.5 nM, respectively.

Take `CNC(=O)c1c(-c2ccc(F)cc2)oc2cc(N(C)S(C)(=O)=O)c(-c3c[nH]c(=O)c(-c4nc5c(F)cccc5o4)c3)cc12` [Compound 159]: the concentration for half-maximal inhibition (IC50) in experiment [1] stood at 0.8 nM; in experiment [2], 1.3 nM.

With `CNC(=O)c1c(-c2ccc(F)cc2)oc2cc(N(CC(F)F)S(C)(=O)=O)c(-c3cc(-c4nc5ncccc5o4)ccn3)cc12` [Compound 170], the IC50 is 27 nM in experiment [1] and 5.1 nM in experiment [2].

For the molecule `CNC(=O)c1c(-c2ccc(F)cc2)oc2cc(N(C)S(C)(=O)=O)c(-c3cncc(-c4cc5ccncc5s4)c3)cc12` [Compound 179], the values for the IC50 in experiment [1] and in experiment [2] were 8.2 nM and 5.1 nM, respectively.

Regarding `CNC(=O)c1c(-c2ccc(F)cc2)oc2cc(N(C)S(C)(=O)=O)c(-c3cncc(-c4ccc5cc(C(F)(F)F)cnc5n4)c3)cc12` [Compound 180], the concentration for half-maximal inhibition (IC50) was determined as 5.4 nM in experiment [1] and 2.3 nM in experiment [2].

Regarding `CNC(=O)c1c(-c2ccc(F)cc2)oc2cc(N(C)S(C)(=O)=O)c(-c3cncc(-c4nc5c(s4)C4CCC5C4)c3)cc12` (stereo not drawn) [Compound 182], the values for the concentration for half-maximal inhibition (IC50) in experiment [1] and in experiment [2] were 4.4 nM and 4.3 nM, respectively.

In the case of `CNC(=O)c1c(-c2ccc(F)cc2)oc2cc(N(C)S(C)(=O)=O)c(-c3cc(-c4cc5ccccc5[nH]4)c(OC)cn3)cc12` [Compound 202], the IC50 in experiment [1] was determined as 8.4 nM; in experiment [2] it was 7.6 nM.

Take `CNC(=O)c1c(-c2ccc(F)cc2)oc2cc(N(C)S(C)(=O)=O)c(-c3ccc(OC)c(-c4cc5cccc(C#N)c5[nH]4)n3)cc12` [Compound 208]: the 50% inhibitory concentration (IC50) in experiment [1] was determined as 27 nM; in experiment [2] it was 7.2 nM.

In the case of `CNC(=O)c1c(-c2ccc(F)cc2)oc2cc(N(C)S(C)(=O)=O)c(-c3cc(-c4cc5ccccc5[nH]4)c(OC)nn3)cc12` [Compound 209], the IC50 in experiment [1] was found to be 8.9 nM; in experiment [2], 4.7 nM.

For the molecule `CNC(=O)c1c(-c2ccc(F)cc2)nn2cc(N(C)S(C)(=O)=O)c(-c3nccc(-c4cc5ccccc5[nH]4)n3)cc12` [Compound 210], the figures for the IC50 in experiment [1] and in experiment [2] were 11 nM and 4.7 nM, respectively.

With `CNC(=O)c1c(-c2ccc(F)cc2)oc2cc(N(C)S(C)(=O)=O)c(-c3ccc(OC)c(-c4cc5ncccc5[nH]4)n3)cc12` [Compound 211], the concentration for half-maximal inhibition (IC50) in experiment [1] stood at 8.8 nM; in experiment [2] it was 2.5 nM.

Regarding `CNC(=O)c1c(-c2ccc(F)cc2)oc2cc(N(C)S(C)(=O)=O)c(-c3ncc(OC)c(-c4cc5c(C#N)cccc5[nH]4)n3)cc12` [Compound 214], the IC50 amounted to 33 nM in experiment [1] and 9.9 nM in experiment [2].

Take `CNC(=O)c1c(-c2ccc(F)cc2)oc2cc(N(C)S(C)(=O)=O)c(-c3cc(-c4cc5c(F)cccc5[nH]4)c(OC)nn3)cc12` [Compound 218]: the IC50 in experiment [1] came out at 4.2 nM; in experiment [2], 9.2 nM.

As for `CNC(=O)c1c(-c2ccc(F)cc2)oc2cc(N(C)S(C)(=O)=O)c(-c3cc(-c4cc5c(F)cccc5[nH]4)nnc3OC)cc12` [Compound 223], the IC50 in experiment [1] is 2.8 nM; in experiment [2], 4.5 nM.

Turning to `CNC(=O)c1c(-c2ccc(F)cc2)oc2cc(N(C)S(C)(=O)=O)c(-c3nc(-c4cc5ccccc5[nH]4)c(OC)cc3OC)cc12` [Compound 224], the half-inhibitory concentration (IC50) was 99 nM in experiment [1] and 31 nM in experiment [2].

As to `CNC(=O)c1c(-c2ccc(F)cc2)oc2cc(N(C)S(C)(=O)=O)c(-c3cnc(OC)c(-c4cc5c(C#N)cccc5[nH]4)n3)cc12` [Compound 225], the concentration for half-maximal inhibition (IC50) in experiment [1] was determined as 4.7 nM; in experiment [2], 7 nM.

Consider `CNC(=O)c1c(-c2ccc(F)cc2)oc2cc(N(C)S(C)(=O)=O)c(-c3cnc(OC)c(-c4cc5cccc(F)c5[nH]4)n3)cc12` [Compound 226], for which the IC50 in experiment [1] is 3.4 nM; in experiment [2] it was 7.2 nM.

As to `CNC(=O)c1c(-c2ccc(F)cc2)oc2cc(N(C)S(C)(=O)=O)c(-c3cc(-c4cc5c(C#N)cccc5[nH]4)cnn3)cc12` [Compound 230], the IC50 in experiment [1] is 1.4 nM; in experiment [2], 1.9 nM.

On to `CNC(=O)c1c(-c2ccc(F)cc2)oc2cc(N(C)S(C)(=O)=O)c(-c3ccc(O)c(-c4cc5c(C#N)nccc5[nH]4)n3)cc12` [Compound 231], for which the values for the IC50 in experiment [1] and in experiment [2] were 339 nM and 47 nM, respectively.

Regarding `CNC(=O)c1c(-c2ccc(F)cc2)oc2cc(N(C)S(C)(=O)=O)c(-c3ccnc(-c4cc5c(C#N)cccc5[nH]4)c3)cc12` [Compound 233], the IC50 in experiment [1] was determined as 0.1 nM; in experiment [2], 0.4 nM.

For `CNC(=O)c1c(-c2ccc(F)cc2)oc2cc(N(CCCF)S(C)(=O)=O)c(-c3cncc(-c4cc5ccccc5[nH]4)c3)cc12` [Compound 244], the results for the IC50 in experiment [1] and in experiment [2] were 2.7 nM and 4.7 nM, respectively.

Turning to `CNC(=O)c1c(-c2ccc(F)cc2)oc2cc(N(C)S(C)(=O)=O)c(-c3ccc(OC)c(-c4cc5ccccn5n4)n3)cc12` [Compound 254, 2-(4-fluorophenyl)-5-(5-methoxy-6-(pyrazolo[1,5-a]pyridin-2-yl)pyridin-2-yl)-N-methyl-6-(N-methylmethylsulfonamido)benzofuran-3-carboxamide], the IC50 in experiment [1] was found to be 214 nM; in experiment [2], 26 nM.

Take `CNC(=O)c1c(-c2ccc(F)cc2)oc2cc(N(C)S(C)(=O)=O)c(-c3ccc(O)c(-c4cc5ccccn5n4)n3)cc12` [Compound 255]: the half-maximal inhibitory concentration (IC50) in experiment [1] came to 1450 nM; in experiment [2], 104 nM.

Regarding `CNC(=O)c1c(-c2ccc(F)cc2)oc2cc(N(C)S(C)(=O)=O)c(-c3nnc(-c4cc5c(F)cccc5[nH]4)o3)cc12` [Compound 256, 5-(5-(4-fluoro-1H-indol-2-yl)-1,3,4-oxadiazol-2-yl)-2-(4-fluorophenyl)-N-methyl-6-(N-methylmethylsulfonamido)benzofuran-3-carboxamide], the IC50 stood at 0.4 nM in experiment [1] and 0.7 nM in experiment [2].

Regarding `CNC(=O)c1c(-c2ccc(F)cc2)oc2cc(N(C)S(C)(=O)=O)c(-c3ccc(O)c(C4Cc5c(F)cccc5N4)n3)cc12` (stereo not drawn) [Compound 257, 5-(6-(4-fluoroindolin-2-yl)-5-hydroxypyridin-2-yl)-2-(4-fluorophenyl)-N-methyl-6-(N-methylmethylsulfonamido)benzofuran-3-carboxamide], the half-maximal inhibitory concentration (IC50) in experiment [1] amounted to 13 nM; in experiment [2], 10 nM.

With `CNC(=O)c1c(-c2ccc(F)cc2)oc2cc(N(C)S(C)(=O)=O)c(-c3nc(-c4cc5c(F)cccc5[nH]4)ns3)cc12` [Compound 258], the results for the half-maximal inhibitory concentration (IC50) in experiment [1] and in experiment [2] were 2.6 nM and 2.5 nM, respectively.

Consider `CNC(=O)c1c(-c2ccc(F)cc2)oc2cc(N(C)S(C)(=O)=O)c(-c3cnnc(-c4cc5c(F)cccc5[nH]4)c3)cc12` [Compound 259], for which the IC50 in experiment [1] turned out to be 1.1 nM; in experiment [2] it was 2.6 nM.

As to `CNC(=O)c1c(-c2ccc(F)cc2)oc2cc(N(C)S(C)(=O)=O)c(-c3cnnc(-c4cc5c(C#N)cccc5[nH]4)c3)cc12` [Compound 260], the concentration for half-maximal inhibition (IC50) in experiment [1] turned out to be 0.7 nM; in experiment [2] it was 1.1 nM.

In the case of `CNC(=O)c1c(-c2ccc(F)cc2)oc2cc(N(C)S(C)(=O)=O)c(-c3cc(-c4cc5c(F)cccc5[nH]4)cnn3)cc12` [Compound 263], the concentration for half-maximal inhibition (IC50) in experiment [1] stood at 3.2 nM; in experiment [2], 2.4 nM.

Turning to `CNC(=O)c1c(-c2ccc(F)cc2)oc2cc(N(C)S(C)(=O)=O)c(-c3cnnc(-n4ncc5c(F)cccc54)c3)cc12` [Compound 264], the IC50 in experiment [1] is 25 nM; in experiment [2], 10 nM.

In the case of `CNC(=O)c1c(-c2ccc(F)cc2)oc2cc(N(C)S(C)(=O)=O)c(-c3cnnc(-n4cc5c(F)cccc5n4)c3)cc12` [Compound 265], the half-maximal inhibitory concentration (IC50) in experiment [1] was found to be 4.5 nM; in experiment [2], 4.1 nM.

Regarding `CNC(=O)c1c(-c2ccc(F)cc2)oc2cc(N(C)S(C)(=O)=O)c(-c3cc(-c4cc5c(C#N)cccc5[nH]4)nnc3C)cc12` [Compound 266], the results for the concentration for half-maximal inhibition (IC50) in experiment [1] and in experiment [2] were 3.2 nM and 3 nM, respectively.

Consider `CNC(=O)c1c(-c2ccc(F)cc2)oc2cc(N(C)S(C)(=O)=O)c(-c3cc(-c4cc5c(F)cccc5[nH]4)nnc3C)cc12` [Compound 268], for which the half-inhibitory concentration (IC50) in experiment [1] amounted to 5.3 nM; in experiment [2], 6.1 nM.

`CNC(=O)c1c(-c2ccc(F)cc2)oc2ccc(-c3cc(-c4cc5c(F)cccc5[nH]4)nnc3C)cc12` [Compound 270]: the IC50 in experiment [1] is 42 nM; in experiment [2], 36 nM.

On to `CNC(=O)c1c(-c2ccc(F)cc2)oc2cc(N(C)S(C)(=O)=O)c(-c3cc(-c4nc5ccccc5o4)cnn3)cc12` [Compound 271], for which the IC50 was determined as 14 nM in experiment [1] and 10 nM in experiment [2].
